{"source": "patent US10087421B2", "about": "“Stem cell suspension” (OTSUKA PHARMACEUTICAL FACTORY, INC., priority 2010, dated 2018)", "key": {"[1]": {"system": "Swine subcutaneous adipose tissue-derived mesenchymal stem cells (Pig AT-MSCs)", "test": "Microscopic observation of cell aggregate mass and cell floating state", "type": "cell-based", "details": "from dilution series of ET-K with saline; Pig AT-MSCs P2; 25° C.", "experimental": "The suspension was left standing at each temperature (0, 25, and 37° C.), pipetted several times with 20 μL PIPETMAN 0, 30, 60, 120 and 240 min later, and 10 μL thereof was transferred to a dish. A stereomicroscope was focused on the lowermost surface of the suspension on the dish, and observation was performed. The cells forming a mass with adjacent cells under the microscope were taken as cell aggregate mass. The cell aggregate mass was confirmed to be obviously moving as a mass by shaking the dish on the stage of the microscope. The swine subcutaneous adipose tissue-derived mesenchymal stem cells prepared in Example 1 were passaged twice and the obtained cells (Pig AT-MSCs P2) were plated on three 10 cm-dishes. The cells were washed three times with 5 ml PBS(−) per 10 cm dish, and detached by treating with 1 ml trypsin-EDTA (0.25% trypsin, 1 mM EDTA·4Na) for 20 sec into a single-cell state. […] Thereafter, in the same manner as in Example 1, the survival rate was calculated and the presence or absence of the cell aggregate mass was observed. […] Thereafter, in the same manner as in Example 1, the survival rate was calculated and the presence or absence of a cell aggregate mass was observed. […]"}, "[2]": {"system": "hAT-MSC P3 and hBM-MSC P3", "test": "Cell morphology, culture after standing and survival, results not separated by cell type", "type": "cell-based, human", "details": "trehalose in HESPANDER; 36 hr (Example 6)", "experimental": "The cells obtained by passaging hAT-MSCs and hBM-MSCs three times (hAT-MSC P3 and hBM-MSC P3) were plated on 10-cm dishes. The cells were washed three times with 5-ml PBS(−) per 10-cm dish, and detached by treating with 1-ml trypsin-EDTA (0.25% trypsin, 1 mM EDTA·4Na) for 20 sec into a single-cell state. […] After standing at room temperature (about 25° C.) for 240 min or 24 hr, the survival rate of the cells was measured, and the cell aggregation and morphology were observed. Furthermore, after standing for 240 min or 24 hr, the cells were further cultured for 12 hr and the cell morphology was observed.\nhAT-MSCs and hBM-MSCs were passaged three times and the obtained cells (hAT-MSCs P3 and hBM-MSCs P3) were plated on 10 cm-dishes. The cells were washed three times with 5-ml PBS(−) per 10-cm dish, and detached by treating with 1-ml trypsin-EDTA (0.25% trypsin, 1 mM EDTA·4Na) for 20 sec into a single-cell state. The obtained cells (hAT-MSCs P3, 4.25×10^5 cells; survival rate, 97.5%: hBM-MSCs P3, 5.0×10^5 cells; survival rate, 98.2%) were transferred to a 15-ml FALCON tube, recovered by centrifugation, washed twice with PBS(−), and suspended in the following composition solution (100 μL). After standing at room temperature (about 25° C.) for 8 hr or 36 hr, the survival rate of the cells was measured and the cell aggregation was observed."}, "[3]": {"system": "hAT-MSCs P8 and hBM-MSCs P6", "test": "Survival rate, cell aggregation and floating after standing for 1 hr (Example 7)", "type": "cell-based, human", "details": "about 25° C.", "experimental": "hAT-MSCs and hBM-MSCs were passaged 6 or 8 times and the obtained cells (hAT-MSCs P8 and hBM-MSCs P6) were plated on 10 cm-dishes. The cells were washed three times with 5-ml HESPANDER (KYORIN Pharmaceutical Co., Ltd.) per 10-cm dish, and detached by treating with 1-ml trypsin-EDTA (0.25% trypsin, 1 mM EDTA·4Na) for 20 sec into a single-cell state. The obtained cells (hAT-MSCs P8, 2.4×10^6 cells; hBM-MSCs P6, 2.3×10^6 cells) were transferred to a 15-ml FALCON tube, recovered by centrifugation, and suspended in the following composition solution. After standing at room temperature (about 25° C.) for 1 hr, the survival rate of the cells was measured and the cell aggregation was observed."}}, "data": [{"smiles": "OC[C@H]1O[C@H](O[C@H]2O[C@H](CO)[C@@H](O)[C@H](O)[C@H]2O)[C@H](O)[C@@H](O)[C@@H]1O", "note": "[trehalose]", "values": [{"measurement": "trehalose concentration at which a stem cell aggregation suppressive effect is exhibited", "setting": "[1]", "result": "not less than 15.1 mg/ml"}, {"measurement": "trehalose concentration at which the stem cells float stably", "setting": "[1]", "result": "at least 15.1 mg/ml"}, {"measurement": "trehalose concentration suggested to be preferable to increase the cell survival rate", "setting": "[2]", "result": "not more than 181.2 mg/mL"}, {"measurement": "cell aggregation suppressive effect", "setting": "[3]", "result": "observed"}, {"measurement": "cell floating effect", "setting": "[3]", "result": "observed"}, {"measurement": "protrusion from the cell / on the cell surface", "setting": "[3]", "result": "suppressed"}, {"measurement": "cell survival rate", "setting": "[3]; added to HESPANDER", "result": "higher than by adding HESPANDER (H) alone"}, {"measurement": "effect on the cytotoxicity of fucoidan", "setting": "[3]; trehalose with 10 μg/ml fucoidan in HESPANDER", "result": "tendency to suppress the cytotoxicity of fucoidan"}]}]}
